PubChem BioAssay AID252 (DTP/NCI, 2004)
Several values for one entry are separate records, joined by “and”; a condition that tells them apart may be missing. Equal entries are not always repeated. Toxic doses and inconclusive results are not listed.

Tested on: BDF1 mice, intracerebral L1210 leukemia, survival T/C
Experiment: NCI In Vivo Anticancer Drug Screen. Data for tumor model L1210 Leukemia (intracerebral) in B6D2F1 (BDF1) mice
Details: higher = longer survival
In short: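 Readout is the T/C ratio: survival of compound-treated animals over that of vehicle-treated controls, in mice bearing transplantable tumour.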

## CCCCCCC(=O)NC1=C(N2CC2)C(=O)C(NC(=O)CCCCCC)=C(N2CC2)C1=O
endpoint: mean survival time, dose: 20.0 mg/kg/injection, schedule: Q01DX009 (ip), vehicle: Klucel (hydroxypropylcellulose) (HPC)
  T/C: 100 % of control
endpoint: mean survival time, dose: 40.0 mg/kg/injection, schedule: Q01DX009 (ip), vehicle: Klucel (hydroxypropylcellulose) (HPC)
  T/C: 105 % of control
endpoint: mean survival time, dose: 80.0 mg/kg/injection, schedule: Q01DX009 (ip), vehicle: Klucel (hydroxypropylcellulose) (HPC)
  T/C: 120 % of control
endpoint: mean survival time, dose: 160.0 mg/kg/injection, schedule: Q01DX009 (ip), vehicle: Klucel (hydroxypropylcellulose) (HPC)
  T/C: 106 % of control

## O=P(NC12CC3CC(CC(C3)C1)C2)(N1CC1)N1CC1
endpoint: mean survival time, dose: 9.0 mg/kg/injection, schedule: Q04DX003 (ip), vehicle: Klucel (hydroxypropylcellulose) (HPC)
  T/C: 112 % of control
endpoint: mean survival time, dose: 12.0 mg/kg/injection, schedule: Q01DX001 (ip), vehicle: Klucel (hydroxypropylcellulose) (HPC)
  T/C: 109 % of control
endpoint: mean survival time, dose: 18.0 mg/kg/injection, schedule: Q01DX001 (ip), vehicle: Klucel (hydroxypropylcellulose) (HPC)
  T/C: 117 % of control

## NC(C/[N+]([O-])=N/O)C(=O)O (stereo unspecified)
endpoint: mean survival time, dose: 25.0 mg/kg/injection, schedule: Q01DX009 (ip), vehicle: other
  T/C: 96 % of control
endpoint: mean survival time, dose: 50.0 mg/kg/injection, schedule: Q01DX001 (ip), vehicle: other
  T/C: 97 % of control
endpoint: mean survival time, dose: 50.0 mg/kg/injection, schedule: Q01DX009 (ip), vehicle: other
  T/C: 98 % of control
endpoint: mean survival time, dose: 100.0 mg/kg/injection, schedule: Q01DX001 (ip), vehicle: other
  T/C: 98 % of control
endpoint: mean survival time, dose: 100.0 mg/kg/injection, schedule: Q01DX009 (ip), vehicle: other
  T/C: 91 % of control
endpoint: mean survival time, dose: 200.0 mg/kg/injection, schedule: Q01DX001 (ip), vehicle: other
  T/C: 101 % of control
endpoint: mean survival time, dose: 400.0 mg/kg/injection, schedule: Q01DX001 (ip), vehicle: other
  T/C: 106 % of control

## CCS(=O)(=O)Nc1cccc(Nc2c3cccc(C)c3nc3c(C)cccc23)c1OC
endpoint: mean survival time, dose: 12.5 mg/kg/injection, schedule: Q01DX009 (ip), vehicle: water
  T/C: 117 % of control
endpoint: mean survival time, dose: 12.5 mg/kg/injection, schedule: Q01DX009 (sc), vehicle: water
  T/C: 105 % of control
endpoint: mean survival time, dose: 25.0 mg/kg/injection, schedule: Q01DX009 (ip), vehicle: water
  T/C: 92 % of control
endpoint: mean survival time, dose: 25.0 mg/kg/injection, schedule: Q01DX009 (sc), vehicle: water
  T/C: 118 % of control
endpoint: mean survival time, dose: 50.0 mg/kg/injection, schedule: Q01DX009 (sc), vehicle: water
  T/C: 113 % of control
endpoint: mean survival time, dose: 100.0 mg/kg/injection, schedule: Q01DX009 (sc), vehicle: water
  T/C: 104 % of control

## CCOC(=O)C1(NC(=O)N(CCCl)N=O)CCCC1
endpoint: mean survival time, dose: 74.0 mg/kg/injection, schedule: Q01DX001 (ip), vehicle: other
  T/C: 116 % of control
endpoint: mean survival time, dose: 108.0 mg/kg/injection, schedule: Q01DX001 (ip), vehicle: other
  T/C: 119 % of control
endpoint: mean survival time, dose: 110.0 mg/kg/injection, schedule: Q01DX001 (ip), vehicle: other
  T/C: 118 % of control
endpoint: mean survival time, dose: 168.0 mg/kg/injection, schedule: Q01DX001 (ip), vehicle: other
  T/C: 152 % of control
endpoint: mean survival time, dose: 250.0 mg/kg/injection, schedule: Q01DX001 (ip), vehicle: other
  T/C: 174 % of control and 275 % of control
endpoint: mean survival time, dose: 370.0 mg/kg/injection, schedule: Q01DX001 (ip), vehicle: other
  T/C: 152 % of control
endpoint: mean survival time, dose: 375.0 mg/kg/injection, schedule: Q01DX001 (ip), vehicle: other
  T/C: 124 % of control

## O=NN(CCCl)C(=O)Nc1ccccc1
endpoint: mean survival time, dose: 8.0 mg/kg/injection, schedule: Q01DX001 (ip), vehicle: carboxymethylcellulose (CMC)
  T/C: 97 % of control
endpoint: mean survival time, dose: 12.0 mg/kg/injection, schedule: Q01DX001 (ip), vehicle: carboxymethylcellulose (CMC)
  T/C: 101 % of control
endpoint: mean survival time, dose: 18.0 mg/kg/injection, schedule: Q01DX001 (ip), vehicle: carboxymethylcellulose (CMC)
  T/C: 107 % of control and 96 % of control
endpoint: mean survival time, dose: 36.0 mg/kg/injection, schedule: Q01DX001 (ip), vehicle: carboxymethylcellulose (CMC)
  T/C: 95 % of control
endpoint: mean survival time, dose: 72.0 mg/kg/injection, schedule: Q01DX001 (ip), vehicle: carboxymethylcellulose (CMC)
  T/C: 93 % of control

## O=c1[nH]cc(F)c(=O)[nH]1
endpoint: mean survival time, dose: 12.76 mg/kg/injection, schedule: Q01DX015 (ip), vehicle: carboxymethylcellulose (CMC)
  T/C: 100 % of control
endpoint: mean survival time, dose: 19.43 mg/kg/injection, schedule: Q01DX015 (ip), vehicle: carboxymethylcellulose (CMC)
  T/C: 111 % of control
endpoint: mean survival time, dose: 29.0 mg/kg/injection, schedule: Q01DX015 (ip), vehicle: carboxymethylcellulose (CMC)
  T/C: 113 % of control
endpoint: mean survival time, dose: 79.5 mg/kg/injection, schedule: Q01DX001 (ip), vehicle: carboxymethylcellulose (CMC)
  T/C: 112 % of control
endpoint: median survival time, dose: 8.4 mg/kg/injection, schedule: Q01DX009 (ip), vehicle: saline
  T/C: 105 % of control
endpoint: median survival time, dose: 14.0 mg/kg/injection, schedule: Q01DX009 (ip), vehicle: saline
  T/C: 108 % of control
endpoint: median survival time, dose: 23.0 mg/kg/injection, schedule: Q04DX003 (ip), vehicle: saline
  T/C: 108 % of control
endpoint: median survival time, dose: 39.0 mg/kg/injection, schedule: Q01DX009 (ip), vehicle: saline
  T/C: 107 % of control
endpoint: median survival time, dose: 39.0 mg/kg/injection, schedule: Q04DX003 (ip), vehicle: saline
  T/C: 118 % of control
endpoint: median survival time, dose: 65.0 mg/kg/injection, schedule: Q01DX009 (ip), vehicle: saline
  T/C: 96 % of control
endpoint: median survival time, dose: 108.0 mg/kg/injection, schedule: Q04DX003 (ip), vehicle: saline
  T/C: 156 % of control
endpoint: median survival time, dose: 180.0 mg/kg/injection, schedule: Q04DX003 (ip), vehicle: saline
  T/C: 99 % of control

## COCCOC1=C(N2CC2)C(=O)C(OCCOC)=C(N2CC2)C1=O
endpoint: mean survival time, dose: 0.25 mg/kg/injection, schedule: Q01DX009 (ip), vehicle: saline
  T/C: 98 % of control and 100 % of control
endpoint: mean survival time, dose: 1.0 mg/kg/injection, schedule: Q01DX009 (ip), vehicle: saline
  T/C: 105 % of control and 109 % of control
endpoint: mean survival time, dose: 2.0 mg/kg/injection, schedule: Q01DX009 (ip), vehicle: saline
  T/C: 104 % of control and 112 % of control and 114 % of control

## NC(=O)N(CCCl)N=O
endpoint: mean survival time, dose: 1.2 mg/kg/injection, schedule: Q01DX001 (ip), vehicle: saline
  T/C: 115 % of control
endpoint: mean survival time, dose: 1.8 mg/kg/injection, schedule: Q01DX001 (ip), vehicle: saline
  T/C: 112 % of control
endpoint: mean survival time, dose: 3.6 mg/kg/injection, schedule: Q01DX001 (ip), vehicle: saline
  T/C: 163 % of control
endpoint: mean survival time, dose: 5.0 mg/kg/injection, schedule: Q01DX001 (ip), vehicle: carboxymethylcellulose (CMC)
  T/C: 176 % of control and 187 % of control
endpoint: mean survival time, dose: 7.2 mg/kg/injection, schedule: Q01DX001 (ip), vehicle: saline
  T/C: 159 % of control and 229 % of control
endpoint: mean survival time, dose: 7.5 mg/kg/injection, schedule: Q01DX001 (ip), vehicle: carboxymethylcellulose (CMC)
  T/C: 108 % of control

## CS(=O)(=O)Nc1ccc(Nc2c3ccccc3nc3cc(Cl)ccc23)cc1
endpoint: mean survival time, dose: 10.0 mg/kg/injection, schedule: Q01DX009 (ip), vehicle: saline
  T/C: 99 % of control
endpoint: mean survival time, dose: 10.0 mg/kg/injection, schedule: Q01DX009 (sc), vehicle: saline
  T/C: 99 % of control
endpoint: mean survival time, dose: 20.0 mg/kg/injection, schedule: Q01DX009 (ip), vehicle: saline
  T/C: 98 % of control
endpoint: mean survival time, dose: 20.0 mg/kg/injection, schedule: Q01DX009 (sc), vehicle: saline
  T/C: 102 % of control
endpoint: mean survival time, dose: 40.0 mg/kg/injection, schedule: Q01DX009 (ip), vehicle: saline
  T/C: 106 % of control
endpoint: mean survival time, dose: 40.0 mg/kg/injection, schedule: Q01DX009 (sc), vehicle: saline
  T/C: 114 % of control
endpoint: mean survival time, dose: 80.0 mg/kg/injection, schedule: Q01DX009 (ip), vehicle: saline
  T/C: 91 % of control
endpoint: mean survival time, dose: 80.0 mg/kg/injection, schedule: Q01DX009 (sc), vehicle: saline
  T/C: 114 % of control

## O=NN(CCCl)C(=O)Nc1ccc(F)cc1
endpoint: mean survival time, dose: 11.0 mg/kg/injection, schedule: Q01DX001 (ip), vehicle: carboxymethylcellulose (CMC)
  T/C: 109 % of control
endpoint: mean survival time, dose: 16.6 mg/kg/injection, schedule: Q01DX001 (ip), vehicle: carboxymethylcellulose (CMC)
  T/C: 112 % of control
endpoint: mean survival time, dose: 25.0 mg/kg/injection, schedule: Q01DX001 (ip), vehicle: carboxymethylcellulose (CMC)
  T/C: 109 % of control
endpoint: mean survival time, dose: 37.5 mg/kg/injection, schedule: Q01DX001 (ip), vehicle: carboxymethylcellulose (CMC)
  T/C: 108 % of control

## Nc1nc(=S)c2ncn(C3OC(CO)C(O)C3O)c2[nH]1 (stereo unspecified)
endpoint: mean survival time, dose: 0.66 mg/kg/injection, schedule: Q01DX015 (ip), vehicle: carboxymethylcellulose (CMC)
  T/C: 105 % of control
endpoint: mean survival time, dose: 1.0 mg/kg/injection, schedule: Q01DX015 (ip), vehicle: carboxymethylcellulose (CMC)
  T/C: 115 % of control
endpoint: mean survival time, dose: 1.5 mg/kg/injection, schedule: Q01DX015 (ip), vehicle: carboxymethylcellulose (CMC)
  T/C: 121 % of control
endpoint: mean survival time, dose: 95.0 mg/kg/injection, schedule: Q01DX001 (ip), vehicle: carboxymethylcellulose (CMC)
  T/C: 157 % of control
endpoint: mean survival time, dose: 144.0 mg/kg/injection, schedule: Q01DX001 (ip), vehicle: carboxymethylcellulose (CMC)
  T/C: 171 % of control
endpoint: mean survival time, dose: 215.0 mg/kg/injection, schedule: Q01DX001 (ip), vehicle: carboxymethylcellulose (CMC)
  T/C: 152 % of control

## O=NN(CCCl)C(=O)NC1CCS(=O)(=O)C1 (stereo unspecified) (tested in a mixture with another compound)
endpoint: mean survival time, dose: 14.0 mg/kg/injection, schedule: Q01DX001 (oral), vehicle: other
  T/C: 172 % of control
endpoint: mean survival time, dose: 16.0 mg/kg/injection, schedule: Q01DX001 (ip), vehicle: other
  T/C: 156 % of control
endpoint: mean survival time, dose: 22.0 mg/kg/injection, schedule: Q01DX001 (oral), vehicle: other
  T/C: 217 % of control
endpoint: mean survival time, dose: 36.0 mg/kg/injection, schedule: Q01DX001 (ip), vehicle: other
  T/C: 121 % of control
endpoint: mean survival time, dose: 48.0 mg/kg/injection, schedule: Q01DX001 (oral), vehicle: other
  T/C: 116 % of control
